# System: recombinant rabies virus 1088 strain expressing Gaussia Luciferase (GLuc) (1088/GLuc)
# Format: cell-based
# Details: read-out: Anti-rabies activity
row,SMILES,IC50 [µM]
1,CC(C)CC[C@@H]1[C@H]2CN[C@@]3(C(=O)NCC(C)C)[C@@H](C2)CN(CC(C)C)[C@@H]13 [IB-378],< 5
2,CC(C)CCN1C[C@@H]2C[C@@H]3CN[C@]2(C(=O)NCCC(=O)O)[C@@H]1[C@@H]3Cc1cccc2ccccc12 [IB-381],10 to 30
3,O=C(O)CCNC(=O)[C@]12NC[C@H]3C[C@H]1CN(Cc1ccc(F)cc1)[C@H]2[C@@H]3Cc1cccc2ccccc12 [IB-384],10 to 30
4,CC(C)CCN1C[C@@H]2C[C@@H]3CN[C@]2(C(=O)NCc2ccc(F)cc2)[C@@H]1[C@@H]3CCC(=O)O [IB-386],10 to 30
5,O=C(O)CC[C@@H]1[C@H]2CN[C@@]3(C(=O)NCc4cccc5ccccc45)[C@@H](C2)CN(CC2CCCCC2)[C@@H]13 [IB-389],10 to 30
6,O=C(O)CC[C@@H]1[C@H]2CN[C@@]3(C(=O)NCc4cccc5ccccc45)[C@@H](C2)CN(Cc2ccc(F)cc2)[C@@H]13 [IB-390],10 to 30
7,CC(C)C[C@@H]1[C@H]2CN[C@@]3(C(=O)NCc4cccc5ccccc45)[C@@H](C2)CN(CCC(=O)O)[C@@H]13 [IB-392],10 to 30
8,O=C(O)CCN1C[C@@H]2C[C@@H]3CN[C@]2(C(=O)NCc2ccc(F)cc2)[C@@H]1[C@@H]3Cc1ccccc1 [IB-394],10 to 30
9,CC(C)CC[C@@H]1[C@H]2CN[C@@]3(C(=O)NCc4cccc5ccccc45)[C@@H](C2)CN(CCC(=O)O)[C@@H]13 [IB-398],10 to 30
10,CC(C)CC[C@@H]1[C@H]2CN[C@@]3(C(=O)NCc4ccc(F)cc4)[C@@H](C2)CN(CCC(=O)O)[C@@H]13 [IB-399],10 to 30
11,CC(C)CC[C@@H]1[C@H]2CN[C@@]3(C(=O)NCc4ccc(O)cc4)[C@@H](C2)CN(CCC(=O)O)[C@@H]13 [IB-402],10 to 30
12,O=C(O)CCNC(=O)[C@]12NC[C@H]3C[C@H]1CN(Cc1ccc(O)cc1)[C@H]2[C@@H]3Cc1cccc2ccccc12 [IB-410],10 to 30
13,O=C(NCc1ccc(O)cc1)[C@]12NC[C@H]3C[C@H]1CN(Cc1cccc4ccccc14)[C@H]2[C@@H]3Cc1cccc2ccccc12 [IB-417],10 to 30
14,O=C(O)CC[C@@H]1[C@H]2CN[C@@]3(C(=O)NCc4cccc5ccccc45)[C@@H](C2)CN(CCO)[C@@H]13 [IB-425],10 to 30
15,CC(C)CCN1C[C@@H]2C[C@@H]3CN[C@]2(C(=O)NCc2cccc4ccccc24)[C@@H]1[C@@H]3CO [IB-426],< 5
16,CC(C)CNC(=O)[C@]12NC[C@H]3C[C@H]1CN(CCC(=O)O)[C@H]2[C@@H]3CCc1ccccc1 [IB-430],< 5
17,CC(C)CNC(=O)[C@]12NC[C@H]3C[C@H]1CN(CCC(=O)O)[C@H]2[C@@H]3CO [IB-431],10 to 30
18,CC(C)C[C@@H]1[C@H]2CN[C@@]3(C(=O)NCc4ccc(O)cc4)[C@@H](C2)CN(CCc2ccccc2)[C@@H]13 [IB-449],10 to 30
19,CC(C)C[C@@H]1[C@H]2CN[C@@]3(C(=O)NCc4ccc(O)cc4)[C@@H](C2)CN(Cc2ccc(F)cc2)[C@@H]13 [IB-458],10 to 30
20,O=C(NCCO)[C@]12NC[C@H]3C[C@H]1CN(Cc1cccc4ccccc14)[C@H]2[C@@H]3Cc1ccc(O)cc1 [IB-459],10 to 30
21,CC(C)CC[C@@H]1[C@H]2CN[C@@]3(C(=O)NCCO)[C@@H](C2)CN(CCc2ccccc2)[C@@H]13 [IB-461],10 to 30
22,CC(C)C[C@@H]1[C@H]2CN[C@@]3(C(=O)NCc4ccc(O)cc4)[C@@H](C2)CN(Cc2ccccc2)[C@@H]13 [IB-464],< 5
23,CC(C)CC[C@@H]1[C@H]2CN[C@@]3(C(=O)NCc4ccc(O)cc4)[C@@H](C2)CN(CC(C)C)[C@@H]13 [IB-465],10 to 30
24,O=C(NCc1ccc(O)cc1)[C@]12NC[C@H]3C[C@H]1CN(CCO)[C@H]2[C@@H]3Cc1cccc2ccccc12 [IB-470],10 to 30
25,CCCCCCNC(=O)[C@]12NC[C@H]3C[C@H]1CN(CCO)[C@H]2[C@@H]3Cc1ccccc1 [IB-476],< 5

row,SMILES,IC50 [µM]
1,CCCCCCNC(=O)[C@]12NC[C@H]3C[C@H]1CN(CCO)[C@H]2[C@@H]3CC(C)C [IB-477],< 5
2,CCCCCCNC(=O)[C@]12NC[C@H]3C[C@H]1CN(CCO)[C@H]2[C@@H]3Cc1ccc(O)cc1 [IB-478],10 to 30
3,O=C(NCc1ccc(F)cc1)[C@]12NC[C@H]3C[C@H]1CN(CCO)[C@H]2[C@@H]3Cc1ccccc1 [IB-479],10 to 30
4,CC(C)CCN1C[C@@H]2C[C@@H]3CN[C@]2(C(=O)NCc2ccc(F)cc2)[C@@H]1[C@@H]3Cc1ccc(O)cc1 [IB-481],< 5
5,CCCCCCNC(=O)[C@]12NC[C@H]3C[C@H]1CN(CCO)[C@H]2[C@@H]3CCC(C)C [IB-490],< 5
6,O=C(NCc1ccc(F)cc1)[C@]12NC[C@H]3C[C@H]1CN(CCO)[C@H]2[C@@H]3CCc1ccccc1 [IB-492],< 5
7,CC(C)C[C@@H]1[C@H]2CN[C@@]3(C(=O)NCCc4ccccc4)[C@@H](C2)CN(CC(C)C)[C@@H]13 [IB-495],< 5
8,CC(C)CN1C[C@@H]2C[C@@H]3CN[C@]2(C(=O)NCc2ccc(F)cc2)[C@@H]1[C@@H]3Cc1ccc(O)cc1 [IB-498],< 5
9,CC(C)C[C@@H]1[C@H]2CN[C@@]3(C(=O)NCc4ccc(F)cc4)[C@@H](C2)CN(Cc2ccc(O)cc2)[C@@H]13 [IB-499],< 5
10,CC(C)CC[C@@H]1[C@H]2CN[C@@]3(C(=O)NC(C)C)[C@@H](C2)CN(Cc2ccc(O)cc2)[C@@H]13 [IB-501],< 5
11,CC(C)NC(=O)[C@]12NC[C@H]3C[C@H]1CN(Cc1ccc(O)cc1)[C@H]2[C@@H]3Cc1cccc2ccccc12 [IB-502],< 5
12,CC(C)CCN1C[C@@H]2C[C@@H]3CN[C@]2(C(=O)NCc2ccccc2)[C@@H]1[C@@H]3CCC(=O)O [IB-505],10 to 30
13,CC(C)CNC(=O)C12NCC3CC1CN(CCc1ccccc1)C2C3CCC(=O)O (stereo not drawn) [IB-508],10 to 30
14,CC(C)CNC(=O)C12NCC3CC1CN(CC1CCCCC1)C2C3CCC(=O)O (stereo not drawn) [IB-510],10 to 30
15,O=C(O)CCN1CC2CC3CNC2(C(=O)NCc2ccc(O)cc2)C1C3CCc1ccccc1 (stereo not drawn) [IB-515],10 to 30
16,O=C(O)CCN1CC2CC3CNC2(C(=O)NCc2ccc(O)cc2)C1C3Cc1cccc2ccccc12 (stereo not drawn) [IB-516],10 to 30
17,CC(C)CC1C2CNC3(C(=O)NCCC(N)=O)C(C2)CN(Cc2cccc4ccccc24)C13 (stereo not drawn) [IB-520],< 5
18,NC(=O)CCNC(=O)C12NCC3CC1CN(Cc1cccc4ccccc14)C2C3Cc1ccc(O)cc1 (stereo not drawn) [IB-521],10 to 30
19,NC(=O)CCNC(=O)C12NCC3CC1CN(CC1CCCCC1)C2C3Cc1cccc2ccccc12 (stereo not drawn) [IB-522],10 to 30
20,NC(=O)CCNC(=O)C12NCC3CC1CN(Cc1ccc(F)cc1)C2C3Cc1cccc2ccccc12 (stereo not drawn) [IB-525],10 to 30
21,CC(C)CCC1C2CNC3(C(=O)NCCc4ccccc4)C(C2)CN(CCO)C13 (stereo not drawn) [IB-531],10 to 30
22,NC(=O)CCNC(=O)C12NCC3CC1CN(Cc1ccccc1)C2C3CCc1ccccc1 (stereo not drawn) [IB-535],10 to 30
23,CC(C)CN1CC2CC3CNC2(C(=O)NCCc2ccccc2)C1C3Cc1ccc(O)cc1 (stereo not drawn) [IB-536],10 to 30
24,CC(C)CN1CC2CC3CNC2(C(=O)NCCC(N)=O)C1C3CCc1ccccc1 (stereo not drawn) [IB-539],10 to 30
25,CC(C)CC1C2CNC3(C(=O)NCCc4ccccc4)C(C2)CN(Cc2ccc(O)cc2)C13 (stereo not drawn) [IB-540],10 to 30

row,SMILES,IC50 [µM]
1,CC(C)CC1C2CNC3(C(=O)NCc4cccc5ccccc45)C(C2)CN(Cc2ccc(O)cc2)C13 (stereo not drawn) [IB-541],< 5
2,CC(C)CCC1C2CNC3(C(=O)NCCc4ccccc4)C(C2)CN(Cc2ccc(O)cc2)C13 (stereo not drawn) [IB-544],10 to 30
3,O=C(NCc1ccc(F)cc1)C12NCC3CC1CN(CCO)C2C3Cc1ccc(O)cc1 (stereo not drawn) [IB-549],10 to 30
4,CCCCCCNC(=O)C12NCC3CC1CN(CCC(C)C)C2C3CC(C)C (stereo not drawn) [IB-551],< 5
5,CC(C)CCN1CC2CC3CNC2(C(=O)NCc2ccc(F)cc2)C1C3CC(C)C (stereo not drawn) [IB-553],< 5
6,CCCCCCNC(=O)C12NCC3CC1CN(Cc1ccccc1)C2C3Cc1ccccc1 (stereo not drawn) [IB-562],10 to 30
7,O=C(NCc1ccc(F)cc1)C12NCC3CC1CN(Cc1ccccc1)C2C3CCc1ccccc1 (stereo not drawn) [IB-568],10 to 30
8,CC(C)CCNC(=O)C12NCC3CC1CN(Cc1ccc(O)cc1)C2C3Cc1ccccc1 (stereo not drawn) [IB-574],10 to 30
9,CC(C)CNC(=O)C12NCC3CC1CN(CCC(=O)O)C2C3Cc1cccc2ccccc12 (stereo not drawn) [IB-575],10 to 30
10,CC(C)CCN1CC2CC3CNC2(C(=O)NCc2ccc(O)cc2)C1C3CCc1ccccc1 (stereo not drawn) [IB-576],10 to 30
11,CC(C)CCN1CC2CC3CNC2(C(=O)NCc2ccc(O)cc2)C1C3Cc1ccccc1 (stereo not drawn) [IB-577],10 to 30
12,CC(C)CC1C2CNC3(C(=O)NCc4ccc(O)cc4)C(C2)CN(CC2CCCCC2)C13 (stereo not drawn) [IB-581],10 to 30
13,CC(C)CCC1C2CNC3(C(=O)NCc4ccc(O)cc4)C(C2)CN(Cc2ccc(F)cc2)C13 (stereo not drawn) [IB-582],10 to 30
14,O=C(NCc1ccc(O)cc1)C12NCC3CC1CN(Cc1ccc(F)cc1)C2C3Cc1ccccc1 (stereo not drawn) [IB-583],10 to 30
15,CC(C)CC1C2CNC3(C(=O)NCc4cccc5ccccc45)C(C2)CN(CCO)C13 (stereo not drawn) [IB-585],10 to 30
16,O=C(NCCO)C12NCC3CC1CN(Cc1cccc4ccccc14)C2C3Cc1ccccc1 (stereo not drawn) [IB-588],< 5
17,O=C(NCCO)[C@]12NC[C@H]3C[C@H]1CN(CCc1ccccc1)[C@H]2[C@@H]3Cc1cccc2ccccc12 [IB-593],10 to 30
18,O=C(NCCO)[C@]12NC[C@H]3C[C@H]1CN(Cc1ccccc1)[C@H]2[C@@H]3Cc1cccc2ccccc12 [IB-602],10 to 30
19,O=C(O)CCNC(=O)[C@]12NC[C@H]3C[C@H]1CN(CCO)[C@H]2[C@@H]3Cc1cccc2ccccc12 [IB-610],10 to 30
20,CC(C)CCN1C[C@@H]2C[C@@H]3CN[C@]2(C(=O)NCCC(=O)O)[C@@H]1[C@@H]3CC(C)C [IB-611],10 to 30
21,CC(C)CC[C@@H]1[C@H]2CN[C@@]3(C(=O)NCCC(=O)O)[C@@H](C2)CN(CC2CCCCC2)[C@@H]13 [IB-613],10 to 30
22,O=C(O)CCNC(=O)[C@]12NC[C@H]3C[C@H]1CN(CC1CCCCC1)[C@H]2[C@@H]3Cc1cccc2ccccc12 [IB-614],10 to 30
23,O=C(O)CCNC(=O)[C@]12NC[C@H]3C[C@H]1CN(Cc1ccccc1)[C@H]2[C@@H]3Cc1cccc2ccccc12 [IB-616],10 to 30
24,O=C(NCc1ccccc1)[C@]12NC[C@H]3C[C@H]1CN(CCO)[C@H]2[C@@H]3CCc1ccccc1 [IB-618],< 5
25,O=C(NCc1ccccc1)[C@]12NC[C@H]3C[C@H]1CN(CCO)[C@H]2[C@@H]3Cc1ccccc1 [IB-619],10 to 30
